System: MCF-7 breast cancer cells
Experiment: Microarray gene expression analysis (Agilent whole human genome 4 x 44K; compound vs DMSO, LIMMA log2 fold change)
Format: cell-based
Settings: Apoptosis genes

Oc1cccc(-c2nc(N3CCOCC3)c3oc4ncccc4c3n2)c1 [PI-103]
HSPD1 log2FC (Gene 3329): -0.080
HSPE1 log2FC (Gene 3336): -0.309
HTR2B log2FC (Gene 3357): -0.397
IAPP log2FC (Gene 3375): -0.066
ID1 log2FC (Gene 3397): 0.070
ID3 log2FC (Gene 3399): -0.082
IFI16 log2FC (Gene 3428): 0.334
IFI27 log2FC (Gene 3429): -0.196
IFIT2 log2FC (Gene 3433): 1.643
IFIT3 log2FC (Gene 3437): 0.140
IFNG log2FC (Gene 3458): -0.040
IGBP1 log2FC (Gene 3476): 0.178
IGF1 log2FC (Gene 3479): 0.051
IGF1R log2FC (Gene 3480): 0.084
IGF2R log2FC (Gene 3482): 0.351
IGFBP3 log2FC (Gene 3486): 0.086
IKBKB log2FC (Gene 3551): 0.122
IL1B log2FC (Gene 3553): 0.035
IL1RN log2FC (Gene 3557): -0.235
IL2 log2FC (Gene 3558): -0.008
IL4 log2FC (Gene 3565): -0.010
IL6 log2FC (Gene 3569): 0.006
IL6R log2FC (Gene 3570): 0.551
IL6ST log2FC (Gene 3572): 0.257
IL7 log2FC (Gene 3574): 0.210
IL10 log2FC (Gene 3586): -0.050
TNFRSF9 log2FC (Gene 3604): -0.328
ING2 log2FC (Gene 3622): 0.264
INHBA log2FC (Gene 3624): -0.687
INHBB log2FC (Gene 3625): -0.799
INS log2FC (Gene 3630): -0.043
INPP5D log2FC (Gene 3635): -0.048
INSL3 log2FC (Gene 3640): -0.069
IRAK1 log2FC (Gene 3654): -0.233
IRF1 log2FC (Gene 3659): -0.382
IRF3 log2FC (Gene 3661): -0.472
IRF5 log2FC (Gene 3663): 1.340
IRF7 log2FC (Gene 3665): 0.353
ITGA1 log2FC (Gene 3672): 0.190
ITGA5 log2FC (Gene 3678): -0.454
ITGAV log2FC (Gene 3685): 0.599
ITGB1 log2FC (Gene 3688): 0.583
ITPR1 log2FC (Gene 3708): 0.249
JAG2 log2FC (Gene 3714): 0.522
JAK2 log2FC (Gene 3717): 0.369
JAK3 log2FC (Gene 3718): -0.043
JUN log2FC (Gene 3725): -0.937
KCNMA1 log2FC (Gene 3778): 0.170
KNG1 log2FC (Gene 3827): -0.057
KPNA1 log2FC (Gene 3836): -0.280
KPNB1 log2FC (Gene 3837): 0.240
KRT8 log2FC (Gene 3856): -0.277
KRT18 log2FC (Gene 3875): -0.442
LCK log2FC (Gene 3932): -0.114
LEP log2FC (Gene 3952): -0.051
LGALS7 log2FC (Gene 3963): -0.229
LIG4 log2FC (Gene 3981): 0.035
LMNA log2FC (Gene 4000): -0.013
LMNB1 log2FC (Gene 4001): -0.018
LRP6 log2FC (Gene 4040): -0.118
LTBR log2FC (Gene 4055): -0.111
LTK log2FC (Gene 4058): -0.062
LYN log2FC (Gene 4067): -0.359
SMAD3 log2FC (Gene 4088): 0.243
SMAD6 log2FC (Gene 4091): 0.083
MAL log2FC (Gene 4118): -0.429
MAX log2FC (Gene 4149): -0.351
MCF2 log2FC (Gene 4168): 0.031
MCL1 log2FC (Gene 4170): -1.349
MDK log2FC (Gene 4192): 0.235
MDM2 log2FC (Gene 4193): -0.113
MECP2 log2FC (Gene 4204): -0.128
MEF2A log2FC (Gene 4205): -0.174
MEF2C log2FC (Gene 4208): 0.238
MEF2D log2FC (Gene 4209): -0.520
MAP3K5 log2FC (Gene 4217): -0.660
MEN1 log2FC (Gene 4221): 0.029
KITLG log2FC (Gene 4254): -0.218
MGMT log2FC (Gene 4255): -0.055
MIF log2FC (Gene 4282): 0.230
MLH1 log2FC (Gene 4292): 0.343
MAP3K9 log2FC (Gene 4293): -0.693
MAP3K10 log2FC (Gene 4294): 0.639
MAP3K11 log2FC (Gene 4296): -0.577
MMP9 log2FC (Gene 4318): -0.279
MNAT1 log2FC (Gene 4331): 0.589
MNT log2FC (Gene 4335): 1.538
MPO log2FC (Gene 4353): -0.006
CITED1 log2FC (Gene 4435): -0.101
MSH2 log2FC (Gene 4436): 0.786
MSX1 log2FC (Gene 4487): -0.243
MUC1 log2FC (Gene 4582): -0.282
MUC2 log2FC (Gene 4583): -0.081
MUC5AC log2FC (Gene 4586): -0.288
MUSK log2FC (Gene 4593): -0.262
MX1 log2FC (Gene 4599): 0.148
MYC log2FC (Gene 4609): 0.421
MYD88 log2FC (Gene 4615): -0.601
GADD45B log2FC (Gene 4616): 0.857
NBN log2FC (Gene 4683): 0.619
NDUFS1 log2FC (Gene 4719): 0.294
NF1 log2FC (Gene 4763): 0.451
NFATC4 log2FC (Gene 4776): 0.296
NFE2L2 log2FC (Gene 4780): 0.540
NFKB1 log2FC (Gene 4790): -0.256
NFKBIA log2FC (Gene 4792): -0.656
NGFR log2FC (Gene 4804): -0.069
NKX3-1 log2FC (Gene 4824): -0.386
NME1 log2FC (Gene 4830): 0.199
NME2 log2FC (Gene 4831): 0.205
NME3 log2FC (Gene 4832): -0.013
NMT1 log2FC (Gene 4836): -0.214
NODAL log2FC (Gene 4838): -0.025
NOS3 log2FC (Gene 4846): -0.168
NOTCH2 log2FC (Gene 4853): 0.274
NPM1 log2FC (Gene 4869): 0.282
NPTX1 log2FC (Gene 4884): -0.756
NPY5R log2FC (Gene 4889): -0.042
SLC11A2 log2FC (Gene 4891): 0.320
NRAS log2FC (Gene 4893): -0.535
NTF3 log2FC (Gene 4908): -1.099
NTRK2 log2FC (Gene 4915): -0.265
NR4A2 log2FC (Gene 4929): 0.442
OCLN log2FC (Gene 4950): 0.409
OPA1 log2FC (Gene 4976): 0.350
TNFRSF11B log2FC (Gene 4982): 0.966
OSM log2FC (Gene 5008): -0.008
P2RX1 log2FC (Gene 5023): -0.016
P2RX4 log2FC (Gene 5025): 0.348
P2RX7 log2FC (Gene 5027): -0.319
SERPINB2 log2FC (Gene 5055): -0.093
PAK1 log2FC (Gene 5058): 0.071
PAK2 log2FC (Gene 5062): -0.103
PARK2 log2FC (Gene 5071): -0.149
PAWR log2FC (Gene 5074): 0.876
PAX3 log2FC (Gene 5077): -0.114
PAX4 log2FC (Gene 5078): -0.073
PAX7 log2FC (Gene 5081): -0.197
PCNT log2FC (Gene 5116): 0.446
PDCD1 log2FC (Gene 5133): -0.284
PDCD2 log2FC (Gene 5134): -0.282
PDE1A log2FC (Gene 5136): -0.171
PDK1 log2FC (Gene 5163): 0.405
PDK2 log2FC (Gene 5164): 1.524
PDK4 log2FC (Gene 5166): 0.866
PDPK1 log2FC (Gene 5170): 0.478
PHB log2FC (Gene 5245): -0.382
SERPINB9 log2FC (Gene 5272): -0.438
SERPINB10 log2FC (Gene 5273): 0.028
PIK3CA log2FC (Gene 5290): 0.818
PIM1 log2FC (Gene 5292): 1.292
PIK3R1 log2FC (Gene 5295): 0.203
PLAGL1 log2FC (Gene 5325): 0.317
PLAGL2 log2FC (Gene 5326): -1.296
PLK1 log2FC (Gene 5347): -0.016
PLSCR1 log2FC (Gene 5359): 0.371
PMAIP1 log2FC (Gene 5366): -1.121

Source: article PMC4303209, “A novel phosphatidylinositol 3-kinase (PI3K) inhibitor directs a potent FOXO-dependent, p53-independent cell cycle arrest phenotype characterized by the differential induction of a subset of FOXO-regulated genes” (Breast Cancer Research : BCR, 2014)
